Reference: patent US12145947B2, “Pyrimidine based modulators and uses thereof” (Quanta Therapeutics, Inc., priority 2022, dated 2024)

Assays:
KRAS G12D/RAF1 = biological target: T1, KRAS G12D/RAF1 (Homo sapiens, UniProt P01116, G12D); assay: Protein-protein interaction (PPI) HTRF assay KRAS G12D/RAF1; format: binding
T1 construct: His6-MBP (N, cleaved yes); made in house; host or cells: E. coli
How it was run: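 HTRF pairing of His-tagged RAF1 (52-131) plus Tb-cryptate donor with GppNHp-exchanged biotin-RAS (KRAS 1-169 wt/G12D/G12V, NRAS wt) plus streptavidin-d2 acceptor; compound sits 30 min with RAS first, then 1 h RT with RAF1. IC50 derived from 665/615 ratio, untagged RAF1 defining full inhibition.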

[1] = test system: GP2D cells (KRAS G12D), phospho-ERK; assay: pERK In Cell Western (ICW) assay, GP2D cells; format: cell-based; details: Table 4, 3 hours
How it was run: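 GP2D (10,000 cells/well) and AGS (5,000 cells/well) cells were treated for 3 h at 37 °C with a 10-point, ½-log dilution series (top […]). They were then fixed and immunostained for phospho-ERK. pERK signal was normalised to DRAQ5 and expressed as % of DMSO, with IC50 from a 4-parameter fit.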

T1 sequence (P01116 with tags, fused parts or gaps isoform P01116-2 G12D): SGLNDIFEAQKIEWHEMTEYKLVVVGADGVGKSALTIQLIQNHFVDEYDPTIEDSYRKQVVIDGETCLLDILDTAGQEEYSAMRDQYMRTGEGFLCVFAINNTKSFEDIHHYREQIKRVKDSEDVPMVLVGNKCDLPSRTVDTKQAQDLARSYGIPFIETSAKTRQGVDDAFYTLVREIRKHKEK

Row | Compound | IC50 (KRAS G12D/RAF1; Table 4) [µM] | IC50 [1] [µM] | also measured
1 | CN(C)CC1(COc2nc(N3CC4CCC(C3)N4)c(C#N)c(N3CC4(CCc5sc(N)c(C#N)c54)C3)n2)CC1(F)F (centres unmarked) [Compound 74A, 2-amino-1′-[5-cyano-6-(3,8-diazabicyclo[3.2.1]octan-3-yl)-2-[[(1*)-1-[(dimethylamino)methyl]-2,2-difluoro-cyclopropyl]methoxy]pyrimidin-4-yl]spiro[5,6-dihydrocyclopenta[b]thiophene-4,3′-azetidine]-3-carbonitrile] | – | – | IC50 (KRAS G12D/RAF1; Table 4, listed as 74.1): < 0.1 µM; IC50 ([1]; listed as 74.1): 0.001 to 0.01 µM
2 | CN(C)CC1(COc2nc(N3CC4CCC(C3)N4)c(C#N)c(N3CC4(CCc5sc(N)c(C#N)c54)C3)n2)CC1(F)F (centres unmarked) [Compound 74B, 2-amino-1′-[5-cyano-6-(3,8-diazabicyclo[3.2.1]octan-3-yl)-2-[[(1*)-1-[(dimethylamino)methyl]-2,2-difluoro-cyclopropyl]methoxy]pyrimidin-4-yl]spiro[5,6-dihydrocyclopenta[b]thiophene-4,3′-azetidine]-3-carbonitrile] | – | – | IC50 (KRAS G12D/RAF1; Table 4, listed as 74.2): 10 to 100 µM; IC50 ([1]; listed as 74.2): 1 to 10 µM
3 | N#Cc1c(N2CCCn3nc(-c4ccccn4)c(Cl)c3C2)nc(OCC2(CN3CCOCC3)CC2)nc1N1CC2(CCc3sc(N)c(C#N)c32)C1 [Compound 75, 2-amino-1′-[6-[3-chloro-2-(2-pyridyl)-4,6,7,8-tetrahydropyrazolo[1,5-a][1,4]diazepin-5-yl]-5-cyano-2-[[1-(morpholinomethyl)cyclopropyl]methoxy]pyrimidin-4-yl]spiro[5,6-dihydrocyclopenta[b]thiophene-4,3′-azetidine]-3-carbonitrile] | 0.1 to 1 | 0.01 to 0.1 | –
4 | N#Cc1c(N2C[C@H]3CC[C@@H](C2)N3)nc(OCc2ccccc2)nc1N1CC2(CCc3sc(N)c(C#N)c32)C1 [Compound 76, 2-amino-1′-[2-benzyloxy-5-cyano-6-[(1R,5S)-3,8-diazabicyclo[3.2.1]octan-3-yl]pyrimidin-4-yl]spiro[5,6-dihydrocyclopenta[b]thiophene-4,3′-azetidine]-3-carbonitrile] | 0.1 to 1 | 0.01 to 0.1 | –
5 | N#Cc1c(N2C[C@H]3CC[C@@H](C2)N3)nc(OCc2ccn[nH]2)nc1N1CC2(CCc3sc(N)c(C#N)c32)C1 [Compound 79, 2-amino-1′-[5-cyano-6-[(1R,5S)-3,8-diazabicyclo[3.2.1]octan-3-yl]-2-(1H-pyrazol-5-ylmethoxy)pyrimidin-4-yl]spiro[5,6-dihydrocyclopenta[b]thiophene-4,3′-azetidine]-3-carbonitrile] | 0.1 to 1 | 0.01 to 0.1 | –
6 | CN1CCN(CC2(COc3nc(N4C[C@H]5CC[C@@H](C4)N5)c(C#N)c(N4CC5(CCc6sc(N)c(C#N)c65)C4)n3)CC2)CC1=O [Compound 80, 2-amino-1′-[5-cyano-2-[[1-[(4-methyl-3-oxo-piperazin-1-yl)methyl]cyclopropyl]methoxy]-6-[(1R,5S)-3,8-diazabicyclo[3.2.1]octan-3-yl]pyrimidin-4-yl]spiro[5,6-dihydrocyclopenta[b]thiophene-4,3′-azetidine]-3-carbonitrile] | 0.1 to 1 | 0.001 to 0.01 | –
7 | CO[C@H]1CN(CC2(COc3nc(N4C[C@H]5CC[C@@H](C4)N5)c(C#N)c(N4CC5(CCc6sc(N)c(C#N)c65)C4)n3)CC2)C[C@@H]1F [Compound 81, 2-amino-1′-[5-cyano-6-[(1R,5S)-3,8-diazabicyclo[3.2.1]octan-3-yl]-2-[[1-[[(3S,4S)-3-fluoro-4-methoxy-pyrrolidin-1-yl]methyl]cyclopropyl]methoxy]pyrimidin-4-yl]spiro[5,6-dihydrocyclopenta[b]thiophene-4,3′-azetidine]-3-carbonitrile] | 1 to 10 | 0.01 to 0.1 | –
8 | Cc1nc(-c2nn3c(c2Cl)CN(c2nc(OC[C@@]45CCCN4C[C@H](F)C5)nc(N4CC5(CCc6sc(N)c(C#N)c65)C4)c2C#N)CCC3)n(C)n1 [Compound 85, 2-amino-1′-[6-[3-chloro-2-(2,5-dimethyl-1,2,4-triazol-3-yl)-4,6,7,8-tetrahydropyrazolo[1,5-a][1,4]diazepin-5-yl]-5-cyano-2-[[(2R,8S)-2-fluoro-1,2,3,5,6,7-hexahydropyrrolizin-8-yl]methoxy]pyrimidin-4-yl]spiro[5,6-dihydrocyclopenta[b]thiophene-4,3′-azetidine]-3-carbonitrile] | 10 to 100 | 0.01 to 0.1 | –
9 | N#Cc1c(N2C[C@H]3CC[C@@H](C2)N3)nc(OCC2(CN3CCOCC3)CC2)nc1N1CC2(C=CCc3sc(N)c(C#N)c32)C1 [Compound 86, 2-amino-1′-[5-cyano-2-[[1-(morpholinomethyl)cyclopropyl]methoxy]-6-[(1R,5S)-3,8-diazabicyclo[3.2.1]octan-3-yl]pyrimidin-4-yl]spiro[7H-benzothiophene-4,3′-azetidine]-3-carbonitrile] | < 0.1 | 0.001 to 0.01 | –
10 | CN(C)CC1(COc2nc(N3CCCn4nc(C(=O)N(C)C)c(Cl)c4C3)c(C#N)c(N3CC4(CCc5sc(N)c(C#N)c54)C3)n2)CC1(F)F (centres unmarked) [Compound 87, 5-[6-(2-amino-3-cyano-spiro[5,6-dihydrocyclopenta[b]thiophene-4,3′-azetidine]-1′-yl)-5-cyano-2-[[1-[(dimethylamino)methyl]-2,2-difluoro-cyclopropyl]methoxy]pyrimidin-4-yl]-3-chloro-N,N-dimethyl-4,6,7,8-tetrahydropyrazolo[1,5-a][1,4]diazepine-2-carboxamide] | 1 to 10 | 0.001 to 0.01 | –
11 | C[C@H](Oc1nc(N2C[C@H]3CC[C@@H](C2)N3)c(C#N)c(N2CC3(CCc4sc(N)c(C#N)c43)C2)n1)[C@@H]1CCCN1C [Compound 88, 2-amino-1′-[5-cyano-6-[(1R,5S)-3,8-diazabicyclo[3.2.1]octan-3-yl]-2-[(1S)-1-[(2S)-1-methylpyrrolidin-2-yl]ethoxy]pyrimidin-4-yl]spiro[5,6-dihydrocyclopenta[b]thiophene-4,3′-azetidine]-3-carbonitrile] | 10 to 100 | 1 to 10 | –
12 | N#Cc1c(N2C[C@H]3CC[C@@H](C2)N3)nc(OCC2(CN3C[C@@H]4C[C@H]3CO4)CC2)nc1N1CC2(CCc3sc(N)c(C#N)c32)C1 [Compound 89, 2-amino-1′-[5-cyano-6-[(1R,5S)-3,8-diazabicyclo[3.2.1]octan-3-yl]-2-[[1-[[(1S,4S)-2-oxa-5-azabicyclo[2.2.1]heptan-5-yl]methyl]cyclopropyl]methoxy]pyrimidin-4-yl]spiro[5,6-dihydrocyclopenta[b]thiophene-4,3′-azetidine]-3-carbonitrile] | 0.1 to 1 | 0.01 to 0.1 | –
13 | CN(C)C(=O)c1nn2c(c1Cl)CN(c1nc(OC[C@@]34CCCN3C[C@H](F)C4)nc(N3CC4(CCc5sc(N)c(C#N)c54)C3)c1C#N)CC(F)(F)C2 [Compound 91, 5-[6-(2-amino-3-cyano-spiro[5,6-dihydrocyclopenta[b]thiophene-4,3′-azetidine]-1′-yl)-5-cyano-2-[[(2R,8S)-2-fluoro-1,2,3,5,6,7-hexahydropyrrolizin-8-yl]methoxy]pyrimidin-4-yl]-3-chloro-7,7-difluoro-N,N-dimethyl-6,8-dihydro-4H-pyrazolo[1,5-a][1,4]diazepine-2-carboxamide] | 0.1 to 1 | 0.01 to 0.1 | –
